# Measurements as given in patent publication EP1599197B1, “THE USE OF ANTIMUSCARINIC DRUGS” (FAPESP-Fundacao de Amparo a Pesquisa do Estado de SP, priority 2003, dated 2004).
# How the values were obtained:
# [1] = system: Wistar, adult, male, rats; experiment: pilocarpine model of epilepsy: video monitoring of spontaneous epileptic seizures after status epilepticus; type: in vivo
# Excerpt: The current invention was based on an experimental model of epilepsy in which in rats the induction of a brain lesion is accomplished through the administration of pilocarpine, a cholinergic agonist. According to the original description of this model, approximately 20-30 days after pilocarpine injection in either rats or mice, there is the onset of spontaneous recurrent epileptic seizures (Turski WA, Cavalheiro EA, Schwarz M, Czuczwar SJ, Kleinrok Z and Turski L. Limbic seizures produced by pilocarpine in rats: behavioural, electroencephalographic and neuropathological study. Behavioral Brain Research, 9:315-335, 1983; Mello LEAM, Cavalheiro EA, Babb TL, Kupfer WR, Pretorius JK, Tan AM and Finch. DM. Circuit mechanisms of seizures in the pilocarpine model of chronic epilepsy: cell loss and mossy fiber sprouting. Epilepsia 34:985-995, 1993). Due to its special features the pilocarpine model is currently one of the 3 most widely used experimental models in the study of epilepsy.
# (§1) Biperiden, together with atropine, is a classic cholinergic antagonist and is known to block muscarinic receptors. These drugs are known by their abilities in blocking the cholinergic transmission which is otherwise mediated through muscarinic receptors. For our experiments we used Wistar, adult, male, rats which were maintained under controled conditions of temperature, light/dark cylces and kept in groups of up to 6 animals in polypropilene boxes with free access to tap water and rat chow pellets. Rats were subject to the intraperitoneal administration of pilocarpine in a dose of 320 mg/Kg for the induction of status epilepticus.
# As expected, the systemic administration of pilocarpine lead to a sequence of behavioral alterations such as akinesia, body tremor and/or myoclonic jerks of the head and oro-facial stereotyped movements accompained by profuse salivation. Status epilepticus, a condition of uninterrupt epileptic seizure, developed on average 19 ± 5 min after the injetion of pilocarpine. Three hours after the onset of status epilepticus the animals in the experimental group (n=10) were intraperitoneally injected with the first initial dose of biperiden (8 mg/kg). This dose represents the concentration needed to provoke memory impairments in rodents (Roldan G, Bolanos-Badillo E, Gonzales-Sanches H, Quirarte GL and Prado-Alcala RA JW. Selective M1 muscarinic receptor antagonists disrupt memory consolidation of inhibitory avoidance in rats. Neurosci. Lett., 230:93-6, 1997).
# For the animals in the control group (n=6), […] after the onset of status epileticus, administration of sterile saline solution (0.9% NaCl), rather than biperiden, was started with a similar protocol.
# In the pilocarpine model of epilepsy, a few weeks after the administration of pilocarpine and the induction of status epilepticus, the animals develop spontaneous epileptic seizures which reccur for as long as the animal are allowed to live. […]
# Approximately 15 to 20 days after the induction of status epilepticus, the reported duration of the latent period for the onset of spontaneous seizures, monitoring of the behavioral seizures with a videocamera for approximately 12 hours/week was initiated. […] Animals were video monitored for approximately 120 days after the induction of status epilepticus. The recorded video tapes were routinelly assessed in a 29 inches wide television screen and the seizures observed for each animal were recorded.
# [2] = system: Wistar, adult, male, rats; experiment: induction of status epilepticus by systemic pilocarpine; type: in vivo; settings: pilocarpine 320 mg/Kg intraperitoneal, average
# Excerpt: as §1
# As expected, the systemic administration of pilocarpine lead to a sequence of behavioral alterations such as akinesia, body tremor and/or myoclonic jerks of the head and oro-facial stereotyped movements accompained by profuse salivation. Status epilepticus, a condition of uninterrupt epileptic seizure, developed on average 19 ± 5 min after the injetion of pilocarpine. Three hours after the onset of status epilepticus the animals in the experimental group (n=10) were intraperitoneally injected with the first initial dose of biperiden (8 mg/kg). […]
SMILES,"qualitative or quantitative nature of each individual seizure, biperiden-treated vs control group ([1]; comparison between the two groups)","onset of spontaneous recurrent seizures after prophylactic use following pilocarpine lesion ([1]; prophylactic use after pilocarpine lesion, vs animals not treated with biperiden)","mean frequency of spontaneous epileptic seizures, control group relative to experimental group (treated with biperiden) ([1]; ratio control / biperiden-treated group, Table 2) [times higher]","Spontaneous seizures/h ([1]; rats, pilocarpine 320 mg/Kg i.p., biperiden 8 mg/kg i.p. every 8 hours for 10 days, n=10, video monitored about 120 days, mean ± standard deviation, p < 0.02 vs control (0.0401 ± 0.0113)) [seizures/h]","Latency (weeks): length of the latent period for the onset of the first recorded spontaneous epileptic seizure ([1]; rats, pilocarpine 320 mg/Kg i.p., biperiden 8 mg/kg i.p. starting 3 h after onset of status epilepticus, every 8 hours for 10 days, n=10, mean ± standard deviation, p < 0.03 vs control (3.2 ± 1.1)) [weeks]",time to development of status epilepticus after the injection of pilocarpine [2] [min]
OC(CCN1CCCCC1)(c1ccccc1)C1CC2C=CC1C2 (stereo not drawn) [biperiden],no differences,significantly retarded or even supressed the onset of spontaneous recurrent seizures,2,0.0202 ± 0.0047,6.0 ± 1.1,
CC[C@@H]1C(=O)OC[C@@H]1Cc1cncn1C [pilocarpine],,,,,,19 ± 5
